Results: patent publication US20220202912A1, “Polypeptides in Preparation of Drugs for Treatment or Prevention of Rheumatoid Arthritis” (priority 2011, published 2022)
Where no end group is shown, it is not given here.

Assays:
TNF-α = assay: immunohistochemistry of TNF-α in ankle joints, CIA transgenic TNF-luc mice; assay type: in vivo, BALB/c transgenic TNF-luc mice; details: Adalimumab 8 mg/kg, mPEG-SC20k-HM-3 20 mg/kg
Description: Determining criteria: The experimental results are determined based on the proportion of positive cells in all tissue cells and the staining intensity of positive cells: A: scoring is performed based on the number of chromogenic cells, 1 point is given when the proportion of the number of positive cells is less than ⅓, 2 points are given when the proportion of the number of positive cells is ⅓-⅔, and 3 points are given when the proportion of the number of positive cells is greater than or equal to ⅔. B: Based on the color depth of cells, 0 point is given when no cells have positive reaction, 1 point is given when cells are light yellow, 2 points are given when the cells are light brown, and 3 points are given when the cells are dark brown. Point product=A×B. The result is expressed in point product.

[1] = test system: AIA transgenic TNF-luc mice; assay: adjuvant-induced arthritis in transgenic TNF-luc mice (swelling, scores, weight, HE staining); assay type: in vivo, BALB/c transgenic TNF-luc mice; set-up: right ankle swelling / left ankle swelling / left toe swelling / right toe swelling / changes of weight (added value): unit not given here; details: Adalimumab 8 mg/kg
Description: 8 animals are randomly divided into 4 groups (n=2), a normal group, a model group, a positive drug group and a test group. On day 0, the initial left and right ankle thicknesses, initial left and right foot palm thicknesses and initial left and right toe thicknesses of each group of mice are measured. On day 0, 50 μL/mouse complete Freund's adjuvant is injected into the bottom of the left toe of each group of mice, and the treatment is started after secondary inflammation appears in the right foot of each group of mice on day 17. On day 17, the normal group and the model group are hypodermically injected with 0.9% normal saline (0.2 mL/20 g of body weight), once every 2 days, 7 times in total. The positive drug Adalimumab group is hypodermically injected with Adalimumab (8 mg/kg of body weight), once every 15 days, once in total. The test group is hypodermically injected with mPEG-SC20k-HM-3 (20 mg/kg of body weight), once every 2 days, 7 times in total. The treatment lasts for 15 days. Then, medication is stopped for observation for one week, and the mice are killed one week later.
On day 0, the initial ankle widths, foot palm widths and toe thicknesses of left and right feet are measured with a vernier caliper as initial values. Every 2 days, the left and right ankle widths, foot palm widths and toe thicknesses of each group of mice are measured separately with the vernier caliper, and compared with the initial values to calculate the changes in the swelling degree.
The joints of the mouse paw are observed with naked eyes, and the joints are scored every 2 days from day 17. Scoring is performed in terms of level 0 to level 4, 5 levels in total.
After the secondary inflammation appears, systemic scoring is performed every 2 days.
Changes of expression of TNF-α and IL-6 are analyzed by HE staining and immunohistochemistry in the ankle joint, spleen and thymus of the mice. Observation and photographing are performed under the FOVs of ×200 and ×400 times respectively, 5 FOVs are taken randomly for each picture, and data statistics is performed.

[2] = 0 d, before treatment (starts day 17), mPEG-SC20k-HM-3 20 mg/kg groups
[3] = 1 d, before treatment (starts day 17), mPEG-SC20k-HM-3 20 mg/kg groups
[4] = 3 d, before treatment (starts day 17), mPEG-SC20k-HM-3 20 mg/kg groups
[5] = 6 d, before treatment (starts day 17), mPEG-SC20k-HM-3 20 mg/kg groups
[6] = 9 d, before treatment (starts day 17), mPEG-SC20k-HM-3 20 mg/kg groups
[7] = 12 d, before treatment (starts day 17), mPEG-SC20k-HM-3 20 mg/kg groups
[8] = 16 d, before treatment (starts day 17), mPEG-SC20k-HM-3 20 mg/kg groups
[9] = 17 d (treatment starts), mPEG-SC20k-HM-3 20 mg/kg sc
[10] = 19 d, mPEG-SC20k-HM-3 20 mg/kg sc
[11] = 22 d, mPEG-SC20k-HM-3 20 mg/kg sc
[12] = 25 d, mPEG-SC20k-HM-3 20 mg/kg sc
[13] = 28 d, mPEG-SC20k-HM-3 20 mg/kg sc
[14] = 31 d, mPEG-SC20k-HM-3 20 mg/kg sc

For “mPEG-SC20k-Ile-Val-Arg-Arg-Ala-Asp-Arg-Ala-Ala-Val-Pro-Gly-Gly-Gly-Gly-Arg-Gly-Asp ({mPEG‑SC 20k}-IVRRADRAAVPGGGGRGD) [polypeptide III, No. 3]”, the “immunohistochemical score of TNF-α in ankle joint cavity” value (TNF-α) was 0.143±0.055, the “changes of weight (added value)” value [1, 2] was 0.00 ± 0.00 and the left ankle swelling [1, 2] was 0.000 ± 0.000. For the same substance, the “left foot (palm) swelling” value [1, 2] was 0.000 ± 0.000, the left toe swelling [1, 2] was 0.000 ± 0.000 and the left ankle swelling [1, 3] was 0.188 ± 0.018. The “left foot (palm) swelling” value [1, 3] was 0.163 ± 0.052, the left toe swelling [1, 3] was 0.255 ± 0.027 and the “changes of weight (added value)” value [1, 4] was 0.27 ± 0.06. For the same substance, the left ankle swelling [1, 4] was 0.204 ± 0.074, the “left foot (palm) swelling” value [1, 4] was 0.174 ± 0.088 and the left toe swelling [1, 4] was 0.225 ± 0.106. For the same substance, the “changes of weight (added value)” value [1, 5] was 0.28 ± 0.25, the left ankle swelling [1, 5] was 0.265 ± 0.031 and the “left foot (palm) swelling” value [1, 5] was 0.207 ± 0.055. For the same substance, the left toe swelling [1, 5] was 0.261 ± 0.126, the “changes of weight (added value)” value [1, 6] was 0.40 ± 0.39 and the left ankle swelling [1, 6] was 0.251 ± 0.029. The “left foot (palm) swelling” value [1, 6] was 0.224 ± 0.062, the left toe swelling [1, 6] was 0.260 ± 0.156 and the “changes of weight (added value)” value [1, 7] was 0.42 ± 0.66. For the same substance, the left ankle swelling [1, 7] was 0.265 ± 0.028, the “left foot (palm) swelling” value [1, 7] was 0.228 ± 0.054 and the left toe swelling [1, 7] was 0.303 ± 0.103. The “changes of weight (added value)” value ([1]; 15 d, before treatment (starts day 17), mPEG-SC20k-HM-3 20 mg/kg groups) was 0.67 ± 1.06, the left ankle swelling [1, 8] was 0.274 ± 0.020 and the “left foot (palm) swelling” value [1, 8] was 0.221 ± 0.041. The left toe swelling [1, 8] was 0.294 ± 0.092, the right ankle swelling [1, 8] was 0.024 ± 0.011 and the “right foot palm swelling” value [1, 8] was 0.007 ± 0.007. For the same substance, the right toe swelling [1, 8] was 0.015 ± 0.021, the joint index score [1, 9] was 7.50 ± 0.70 and the “whole body (systemic) score” value [1, 9] was 5.50 ± 0.70. The “changes of weight (added value)” value [1, 10] was 0.97 ± 1.09, the left ankle swelling [1, 10] was 0.297 ± 0.005 and the right ankle swelling [1, 10] was 0.019 ± 0.009. For the same substance, the “right foot palm swelling” value [1, 10] was 0.010 ± 0.011, the “changes of weight (added value)” value [1, 11] was 0.82 ± 0.57 and the left ankle swelling [1, 11] was 0.252 ± 0.006. For the same substance, the “right foot palm swelling” value [1, 11] was 0.003 ± 0.016, the “changes of weight (added value)” value [1, 12] was 0.61 ± 0.72 and the left ankle swelling [1, 12] was 0.219 ± 0.013. For the same substance, the left toe swelling [1, 12] was 0.292 ± 0.107, the right toe swelling [1, 12] was 0.015 ± 0.027 and the “changes of weight (added value)” value [1, 13] was 1.13 ± 0.18. The right ankle swelling [1, 13] was 0.021±0.013, the “changes of weight (added value)” value [1, 14] was 1.15 ± 0.40 and the left toe swelling [1, 14] was 0.270 ± 0.127. The “HE staining of ankle joints: pathological symptoms vs model group” value ([1]; mPEG-SC20k-HM-3 20 mg/kg) was “relieved to some extent”.
